Experimental data as given in patent publication US12233081B2, “Hygromycin a compounds and methods of treating spirochete diseases” (priority 2018, dated 2025).
Read-outs that look alike come from different tables or passages of the source.

Key:
gut microbiome [1] = details: mouse, in vivo, 100 mg/kg
gut microbiome [2] = assay: gut microbiome 16S rRNA sequencing of stool of infected, treated mice; details: IP 100 mg/kg every 12 hours for 5 days

CC1(C)S[C@@H]2[C@H](NC(=O)[C@H](N)c3ccc(O)cc3)C(=O)N2[C@H]1C(=O)O [Amox, amoxicillin]
Camobacteriaceae change in percent relative abundance (gut microbiome [1]; C3H, ip, 5 days): 0.000%
Chitinophagaceae change in percent relative abundance (gut microbiome [1]; C3H, ip, 5 days): 0.000%
Christensenellaceae change in percent relative abundance (gut microbiome [1]; C3H, ip, 5 days): 0.000%
Clostridiaceae change in percent relative abundance (gut microbiome [1]; C3H, ip, 5 days): 0.211%
Clostridiales change in percent relative abundance (gut microbiome [1]; C3H, ip, 5 days): −0.037%
Clostridiales family xi. incertae sedis change in percent relative abundance (gut microbiome [1]; C3H, ip, 5 days): −0.010%
Clostridiales family xiii. incertae sedis change in percent relative abundance (gut microbiome [1]; C3H, ip, 5 days): −0.007%
Coriobacteriaceae change in percent relative abundance (gut microbiome [1]; C3H, ip, 5 days): 0.099%
Acholeplasmataceae change in percent relative abundance (gut microbiome [1]; ip): 0.005%
Aerococcaceae change in percent relative abundance (gut microbiome [1]; ip): 0.000%
Anaerolineaceae change in percent relative abundance (gut microbiome [1]; ip): 0.000%
Anaeroplasmataceae change in percent relative abundance (gut microbiome [1]; ip): −0.132%
Anaplasmataceae change in percent relative abundance (gut microbiome [1]; ip): 0.000%
Aspergillaceae change in percent relative abundance (gut microbiome [1]; ip): 0.000%
Asteraceae change in percent relative abundance (gut microbiome [1]; ip): 0.000%
Bacillaceae change in percent relative abundance (gut microbiome [1]; ip): −0.011%
Bacillales change in percent relative abundance (gut microbiome [1]; ip): −0.031%
Bacteroidaceae change in percent relative abundance (gut microbiome [1]; ip): 0.684%
Bifidobacteriaceae change in percent relative abundance (gut microbiome [1]; ip): 0.000%
Candidatus saccharibacteria change in percent relative abundance (gut microbiome [1]; ip): −0.018%
Corynebacteriaceae change in percent relative abundance (gut microbiome [1]; ip): 0.000%
Cytophagaceae change in percent relative abundance (gut microbiome [1]; ip): 0.001%
Deferribacteraceae change in percent relative abundance (gut microbiome [1]; ip): 0.080%
Defluviitaleaceae change in percent relative abundance (gut microbiome [1]; ip): 0.000%
Desulfobacteraceae change in percent relative abundance (gut microbiome [1]; ip): 0.000%
Enterobacteriaceae change in percent relative abundance (gut microbiome [1]; ip): −0.243%
Enterococcaceae change in percent relative abundance (gut microbiome [1]; ip): 0.052%
Erysipelotrichaceae change in percent relative abundance (gut microbiome [1]; ip): −0.193%
Eubacteriaceae change in percent relative abundance (gut microbiome [1]; ip): −1.475%
Fabaceae change in percent relative abundance (gut microbiome [1]; ip): 0.000%
Flavobacteriaceae change in percent relative abundance (gut microbiome [1]; ip): 0.000%
Fusobacteriaceae change in percent relative abundance (gut microbiome [1]; ip): 0.000%
Gammaproteobacteria change in percent relative abundance (gut microbiome [1]; ip): 0.003%
Gloeobacteraceae change in percent relative abundance (gut microbiome [1]; ip): 0.055%
Gracilibacteraceae change in percent relative abundance (gut microbiome [1]; ip): −0.026%
Halomonadaceae change in percent relative abundance (gut microbiome [1]; ip): 0.000%
Hylidae change in percent relative abundance (gut microbiome [1]; ip): 0.000%
Kopriimonadaceae change in percent relative abundance (gut microbiome [1]; ip): 0.000%
Lachnospiraceae change in percent relative abundance (gut microbiome [1]; ip): −1.425%
Lactobacillaceae change in percent relative abundance (gut microbiome [1]; ip): 1.726%
Leuconostocaceae change in percent relative abundance (gut microbiome [1]; ip): 0.000%
Methylobacteriaceae change in percent relative abundance (gut microbiome [1]; ip): 0.000%
Microbacteriaceae change in percent relative abundance (gut microbiome [1]; ip): 0.000%
Mucoraceae change in percent relative abundance (gut microbiome [1]; ip): 0.000%
Nostocaceae change in percent relative abundance (gut microbiome [1]; ip): 0.000%
Onagraceae change in percent relative abundance (gut microbiome [1]; ip): 0.000%
Oscillatoriales change in percent relative abundance (gut microbiome [1]; ip): 0.000%
Oscillospiraceae change in percent relative abundance (gut microbiome [1]; ip): 0.001%
Paenibacillaceae change in percent relative abundance (gut microbiome [1]; ip): −0.001%
Pasteurellaceae change in percent relative abundance (gut microbiome [1]; ip): 0.000%
Pelobacteraceae change in percent relative abundance (gut microbiome [1]; ip): 0.000%
Peptococcaceae change in percent relative abundance (gut microbiome [1]; ip): −0.325%
Peptoniphilaceae change in percent relative abundance (gut microbiome [1]; ip): 0.000%
Peptostreptococcaceae change in percent relative abundance (gut microbiome [1]; ip): −0.131%
Physalacriaceae change in percent relative abundance (gut microbiome [1]; ip): 0.000%
Poaceae change in percent relative abundance (gut microbiome [1]; ip): 0.024%
Polyangiaceae change in percent relative abundance (gut microbiome [1]; ip): 0.000%
Porphyromonadaceae change in percent relative abundance (gut microbiome [1]; ip): 10.471%
Prevotellaceae change in percent relative abundance (gut microbiome [1]; ip): 0.080%
Pseudomonadaceae change in percent relative abundance (gut microbiome [1]; ip): 0.000%
Rhizobiaceae change in percent relative abundance (gut microbiome [1]; ip): 0.000%
Rhodobacteraceae change in percent relative abundance (gut microbiome [1]; ip): 0.000%
Rikenellaceae change in percent relative abundance (gut microbiome [1]; ip): −3.443%
Ruminococcaceae change in percent relative abundance (gut microbiome [1]; ip): −0.093%
Sphingomonadaceae change in percent relative abundance (gut microbiome [1]; ip): 0.000%
Spirochaetaceae change in percent relative abundance (gut microbiome [1]; ip): −0.032%
Spiroplasmataceae change in percent relative abundance (gut microbiome [1]; ip): −0.059%
Staphylococcaceae change in percent relative abundance (gut microbiome [1]; ip): −0.001%
Streptococcaceae change in percent relative abundance (gut microbiome [1]; ip): −7.086%
Thermoanaerobacteraceae change in percent relative abundance (gut microbiome [1]; ip): −0.008%
Veillonellaceae change in percent relative abundance (gut microbiome [1]; ip): 0.000%
Verrucomicrobiaceae change in percent relative abundance (gut microbiome [1]; ip): 1.296%
Xanthomonadaceae change in percent relative abundance (gut microbiome [1]; ip): 0.001%
Acholeplasmataceae change in percent relative abundance (gut microbiome [1]; po): 0.095%
Candidatus saccharibacteria change in percent relative abundance (gut microbiome [1]; po): −0.022%
Brucellaceae change in percent relative abundance (gut microbiome [2]): 0.000%
